This passage reports IC50 and EC50 results from US8501732B2, “Aminomethyl quinolone compounds” (Hoffmann-La Roche Inc., priority 2011, dated 2013).

One assay deals with JNK1 (Homo sapiens (Human), UniProt P45983). In words: In Vitro JNK1 Assay (TR-FRET, phosphorylation of GST-c-Jun). It is filed as biochemical. The conditions noted are these: 0.2 nM active JNK1 kinase, 26.7 nM GST-c-Jun, 2 μM ATP, 30 min at room temperature. The procedure, abridged: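 GST-c-Jun (residues 1-79) phosphorylation by JNK1 in 50 mM HEPES pH 7.0, MgCl2, 1 mM DTT, 0.1 mM Na3VO4, 0.2 mg/mL BSA, 30 min at room temperature. Stopped with EDTA plus anti-phospho-c-Jun antibody and read by TR-FRET 1 hr later. IC50 from percent inhibition over 10 serial dilutions.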
On the technique in general: TR-FRET usually uses a lanthanide donor and a delayed reading to cut background.

Assay [1] concerns phospho(Ser63)-c-jun in HK-2 cells. In words: Cell-Based Assay for JNK Inhibitors (in-cell ELISA, phospho(Ser63)-c-jun after TNFα). The conditions noted are these: HK-2 cells (human proximal tubule cells), 60 minutes compound, then 10 ng/mL TNFα for 30 minutes. Here is the method: Cell-Based Assay for JNK Inhibitors
The cell-based assay employed the in-cell ELISA method to determine the ability of compounds to prevent the generation of phospho(Ser63)-c-jun in HK-2 cells (human proximal tubule cells) in response to stimulation with tumor necrosis factor α (TNFα). In brief, for quantification of phospho(Ser63)-c-jun, the cells (in 96-well format) were fixed and permeablized then incubated sequentially with a rabbit anti-phospho-c-jun First Antibody specific for the presence of the phospho-Ser63 epitope and a donkey anti-rabbit IgG Second Antibody linked to horseradish peroxidase (HRP) for colorimetric quantitation of binding. […] Blank wells received no TNFα stimulation or compound. Additional Control wells received TNFα stimulation, but no compound.
Stock cultures of HK-2 cells (ATCC, Manassas, Va.) were grown under a 5% CO2/[…] atmosphere at 37 degrees C. in Keratinocyte-SFM medium (KSFM, Invitrogen, Grand Island, N.Y.) containing 5 μg/L epidermal growth factor and 5 mg/L bovine pituitary extract (both supplied with the medium), additionally supplemented with 10% (v/v) fetal calf serum (FCS; Invitrogen, Grand Island, N.Y.) and 1% (v/v) antibiotic-antimycotic (ABAM: Sigma, St. Louis, Mo.). For assays, cells were seeded in collagen coated 96-well polystyrene plates (BD Biosciences, Franklin Lakes, N.J.) at a density of 40,000 cells/well and cultured for 24 h in the same medium (100 μL/well) followed by a further 16-24 h in 100 μL of similar medium, but without FCS. […] Plates were then allowed to stand at room temperature for 20 minutes before being washed with 200 μL/well of PBS. (Further steps were performed immediately or the plates were stored at 4 degrees C. and the assay completed the next day.) To each well was added 100 μL 1% (v/v) TritonX-100 (Sigma, St. Louis, Mo.) in PBS followed by 20 minutes standing at room temperature, washing with 200 μL/well PBS, the addition of 100 μL/well of Quenching buffer (1% (v/v) hydrogen peroxide (Sigma, St. Louis, Mo.) and 0.1% (w/v) sodium azide (Fisher Scientific, Fair Lawn, N.J.)) in PBS and a further 20 minutes at room temperature. Plates were then washed twice with 200 μL/well of 0.1% (v/v) Tween-20 (Teknova, Hollister, Calif.) in PBS before addition of 200 μL/well of 2% BSA/0.1% Tween-20 in PBS and a further 1 hour at room temperature. […] After a further one hour, rabbit anti-phospho-c-jun-Ser63 is added directly to the solution in the Blank wells resulting in 1:250 dilution of this antibody. Plates were then placed on a slowly rotating platform at 4 degrees C. overnight. Wells were then washed thrice with 200 μL/well PBS/0.1% Tween-20. After addition of the third wash, the plates were placed on a slowly rotating platform for 15 minutes at room temperature. The final PBS/Tween20 wash was then replaced with 100 μL/well of donkey anti-rabbit HRP-labeled Second Antibody (Jackson ImmunoResearch Laboratory, West Grove, Pa.) diluted 1:10,000 in Antibody Dilution Buffer and the plates placed on a slowly rotating platform for 1 hour at room temperature. Wells were then washed four times with 200 μL/well PBS/0.1% Tween-20, including slow rotation for 30 minutes for the third wash and 10 minutes for the final wash. The wells were then washed once with 200 μL PBS without Tween-20. […] Absorbance was determined at a 450 nm wavelength using a spectrophotometer (Molecular Devices SpectraMax 250).

Chain of JNK1 (P45983 whole entry, the tested form may be a part): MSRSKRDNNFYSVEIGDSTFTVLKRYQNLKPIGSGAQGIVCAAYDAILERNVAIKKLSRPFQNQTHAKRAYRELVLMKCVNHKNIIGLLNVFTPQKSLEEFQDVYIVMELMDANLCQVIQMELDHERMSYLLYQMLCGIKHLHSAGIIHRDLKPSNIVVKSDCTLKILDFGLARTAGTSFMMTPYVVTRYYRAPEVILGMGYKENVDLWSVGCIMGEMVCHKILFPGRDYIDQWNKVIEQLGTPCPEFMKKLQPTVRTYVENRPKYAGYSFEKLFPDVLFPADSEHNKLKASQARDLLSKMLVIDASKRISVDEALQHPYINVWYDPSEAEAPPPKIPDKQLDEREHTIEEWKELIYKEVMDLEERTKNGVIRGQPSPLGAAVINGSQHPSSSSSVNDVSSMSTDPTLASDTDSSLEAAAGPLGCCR

In the case of `O=C(NCc1cn(-c2ccccc2)c2cc(Cl)ccc2c1=O)c1cnc(N2CCCCC2)s1` [Example I-91, 2-Piperidin-1-yl-thiazole-5-carboxylic acid (7-chloro-4-oxo-1-phenyl-1,4-dihydro-quinolin-3-ylmethyl)-amide], at JNK1, 0.016 µM corresponded to half-maximal inhibition (IC50). In assay [1], this compound had an EC50 of 19 µM.
Compound `COCCNc1ccc(C(=O)NCc2cn(-c3ccccc3)c3cc(Cl)ccc3c2=O)cn1` [Example I-74, N-(7-Chloro-4-oxo-1-phenyl-1,4-dihydro-quinolin-3-ylmethyl)-6-(2-methoxy-ethylamino)-nicotinamide] gave an IC50 at JNK1 of 0.03 µM. For the same compound, in assay [1], the concentration giving a half-maximal response (EC50) amounted to 27 µM.
In turn, `CN(C)C(=O)c1c(CNC(=O)c2cnn(C)c2)c(=O)c2ccc(Cl)cc2n1-c1ccccc1` [Example I-23, 7-Chloro-3-{[(1-methyl-1H-pyrazole-4-carbonyl)-amino]-methyl}-4-oxo-1-phenyl-1,4-dihydro-quinoline-2-carboxylic acid dimethylamide] returned a half-inhibitory concentration (IC50) on JNK1 of 0.78 µM. The EC50 in assay [1] turned out to be 87 µM.
For `CN1CCCN(c2ccc(C(=O)NCc3cn(-c4ccccc4)c4cc(Cl)ccc4c3=O)cn2)CC1` [Example I-82, N-(7-Chloro-4-oxo-1-phenyl-1,4-dihydro-quinolin-3-ylmethyl)-6-(4-methyl-[1,4]diazepan-1-yl)-nicotinamide], the half-inhibitory concentration (IC50) at JNK1 was 0.071 µM. The same compound registered an EC50 in assay [1] of 19 µM.
Turning to `O=C(NCc1c(-c2ncco2)n(-c2ccccc2)c2ncccc2c1=O)c1ccn(Cc2ccccc2)c(=O)c1` [Example I-9, 1-Benzyl-2-oxo-1,2-dihydro-pyridine-4-carboxylic acid (2-oxazol-2-yl-4-oxo-1-phenyl-1,4-dihydro-[1,8]naphthyridin-3-ylmethyl)-amide], on JNK1, the IC50 turned out to be 0.004 µM. In assay [1], this compound yielded an EC50 of 1.2 µM.
For the compound `CS(=O)(=O)C1CCN(c2ncc(C(=O)NCc3cn(-c4ccccc4)c4cc(Cl)ccc4c3=O)s2)CC1` [Example I-92, 2-(4-Methanesulfonyl-piperidin-1-yl)-thiazole-5-carboxylic acid (7-chloro-4-oxo-1-phenyl-1,4-dihydro-quinolin-3-ylmethyl)-amide], the IC50 against JNK1 was found to be 0.021 µM. This compound registered an EC50 in assay [1] of 26 µM.
The corresponding values for `COC(=O)c1c(CNC(=O)c2ccc(C(N)=O)cc2)c(=O)c2ccc(C(F)(F)F)nc2n1-c1ccccc1` [Example I-155, 3-[(4-Carbamoyl-benzoylamino)-methyl]-4-oxo-1-phenyl-7-trifluoromethyl-1,4-dihydro-[1,8]naphthyridine-2-carboxylic acid methyl ester] are 0.027 µM and 14 µM.
The corresponding values for `COc1ccc(C(=O)NCc2c(C(=O)N(C)C)n(-c3ccccc3)c3cc(Cl)ccc3c2=O)cc1` [Example I-15, 7-Chloro-3-[(4-methoxy-benzoylamino)-methyl]-4-oxo-1-phenyl-1,4-dihydro-quinoline-2-carboxylic acid dimethylamide] are 0.064 µM and 54 µM.
In turn, `CNC(=O)c1ccc(C(=O)NCc2c(C(=O)OC)n(-c3ccccc3)c3cc(Cl)ccc3c2=O)cc1` [Example I-118, 7-Chloro-3-[(4-methylcarbamoyl-benzoylamino)-methyl]-4-oxo-1-phenyl-1,4-dihydro-quinoline-2-carboxylic acid methyl ester] gave a half-inhibitory concentration (IC50) against JNK1 of 0.011 µM. Further, the midpoint of the response in assay [1], the EC50, lay at 3.7 µM.
Take `O=C(NCc1c(-c2ncco2)n(-c2ccccc2)c2cc(Cl)ccc2c1=O)c1ccc(N2CCOCC2)nc1` [Example I-3, N-(7-Chloro-2-oxazol-2-yl-4-oxo-1-phenyl-1,4-dihydro-quinolin-3-ylmethyl)-6-morpholin-4-yl-nicotinamide]: on JNK1, the IC50 is 0.009 µM. The same compound yielded a concentration for a half-maximal effect (EC50) in assay [1] of 3.1 µM.
The corresponding values for `O=C(NCc1cn(-c2ccccc2)c2cc(Cl)ccc2c1=O)c1cnc(N2CCOCC2)s1` [Example I-96, 2-Morpholin-4-yl-thiazole-5-carboxylic acid (7-chloro-4-oxo-1-phenyl-1,4-dihydro-quinolin-3-ylmethyl)-amide] are 0.055 µM and 100 µM.

As usually defined, the IC50 is the concentration needed to halve the response being measured. For orientation: EC50 means the concentration that produces a half-maximal response. A lower EC50 goes with an effect from little substance.
